Drawing on PubChem BioAssay (NCI), this text covers TGI and GI50 for 18 molecules.

The structures appear in SMILES notation.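 All cell lines were grown in 96-well plates and treated with compound for 48 hours. GI50: concentration for 50% inhibition of growth. Definition used: TGI = concentration required for complete inhibition of growth.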

Test systems include SNB-19 CNS; KM12 colon; NCI-H23 lung; NCI-H522 lung; SN12C renal; SR leukemia; DU-145 prostate; MDA-MB-435; MDA-MB-231 breast; SNB-75 CNS; HCT-15 colon; HCC-2998 colon.
What all share (experiment): growth of human tumour cells (NCI), 48 h

With `CCOC(=O)c1cc(=C2\CCN(CC(C)CC)C2=S)/c(=C(/O)CC)[nH]1` (stereo not given), the TGI in the assay on SNB-19 CNS amounted to 34.7 µM; in the assay on KM12 colon it was 32 µM; in the assay on NCI-H23 lung, 33.6 µM; with NCI-H522 lung, 36.4 µM; in the assay with SN12C renal, 39.2 µM; in the assay with SR leukemia it was 26.3 µM. For the same molecule, the TGI in the assay with DU-145 prostate came to 30.2 µM; in the assay with MDA-MB-435 it was 29.6 µM; with MDA-MB-231 breast it was 31.8 µM; with SNB-75 CNS, 36.9 µM; in the assay with HCT-15 colon, 25.8 µM.

`CCCCc1c(O)nc(Nc2nc3ccccc3[nH]2)[nH]c1=O`: the TGI in the assay on SNB-19 CNS, in the assay with KM12 colon, in the assay on NCI-H23 lung, in the assay on NCI-H522 lung, with SN12C renal and in the assay on SR leukemia was > 100 µM each time. Also, the TGI in the assay on DU-145 prostate, with MDA-MB-435, in the assay on MDA-MB-231 breast, with SNB-75 CNS and with HCT-15 colon was > 100 µM each time.

On to `N#Cc1c(N)[nH]c(=S)c(C#N)c1-c1cccc(Cl)c1`, for which the TGI is > 100 µM in the assay on SNB-19 CNS; 35.6 µM in the assay on HCC-2998 colon; > 100 µM with KM12 colon; > 100 µM in the assay with NCI-H23 lung; 56.7 µM in the assay with NCI-H522 lung; 56.3 µM with SN12C renal. The TGI in the assay on SR leukemia is 40.6 µM; in the assay on DU-145 prostate, > 100 µM; with MDA-MB-435, 49.7 µM; in the assay with MDA-MB-231 breast it was > 100 µM; in the assay with HCT-15 colon it was > 100 µM.

Regarding `O=C1CC(C(O)CO)CC(=O)N1` (stereo not given), the TGI in the assay with SNB-19 CNS, in the assay with HCC-2998 colon, with KM12 colon, in the assay on NCI-H23 lung, in the assay with NCI-H522 lung and with SN12C renal was > 100 µM in each case. The TGI in the assay with SR leukemia, in the assay on DU-145 prostate, in the assay with MDA-MB-435, in the assay on MDA-MB-231 breast and in the assay on HCT-15 colon was > 100 µM throughout.

For the molecule `COc1ncc(C=C(C#N)C#N)c(OC)n1`, the TGI is > 100 µM in the assay on SNB-19 CNS; > 100 µM in the assay on KM12 colon; > 100 µM in the assay on NCI-H23 lung; 45.4 µM in the assay on NCI-H522 lung; 74.8 µM in the assay with SN12C renal; 53.5 µM with SR leukemia. Besides, the TGI in the assay on DU-145 prostate was > 100 µM; in the assay with MDA-MB-435, 78.8 µM; in the assay on MDA-MB-231 breast, > 100 µM; in the assay on SNB-75 CNS it was > 100 µM; in the assay with HCT-15 colon, > 100 µM.

`CC(C)=CCN1CC(C)C(=O)Nc2cc(Cl)ccc21` (stereo not given): the TGI in the assay on SNB-19 CNS is > 100 µM; in the assay with HCC-2998 colon it was 97.6 µM; with KM12 colon, 59.8 µM; in the assay on NCI-H23 lung, 85.5 µM; in the assay with NCI-H522 lung, 73.3 µM; with SN12C renal, 33 µM. Further, the TGI in the assay with SR leukemia is > 100 µM; in the assay with DU-145 prostate, > 100 µM; in the assay on MDA-MB-435, 52.1 µM; with MDA-MB-231 breast, 50.2 µM; with HCT-15 colon, 80.6 µM.

As for `Cc1ccccc1C1OC1C(=O)c1ccccc1N` (stereo not given), the TGI with SNB-19 CNS, in the assay on HCC-2998 colon, in the assay with KM12 colon, in the assay on NCI-H23 lung, with SN12C renal and in the assay with SR leukemia was > 100 µM each time. Besides, the TGI in the assay on DU-145 prostate is > 100 µM; with MDA-MB-435, 43.2 µM; in the assay on MDA-MB-231 breast it was > 100 µM; in the assay with HCT-15 colon, > 100 µM.

`N#C/C(=C\NC(=S)Nc1ccc(S(=O)(=O)Nc2ccccn2)cc1)C(N)=O`: the TGI with SNB-19 CNS, in the assay with KM12 colon, in the assay with NCI-H23 lung, in the assay with NCI-H522 lung, with SN12C renal and in the assay with SR leukemia was > 100 µM each time. For the same molecule, the TGI with DU-145 prostate, with MDA-MB-435, with MDA-MB-231 breast, in the assay with SNB-75 CNS and with HCT-15 colon was > 100 µM each time.

Turning to `COC(=O)C1=C(C(=O)OC)C2OC1C1C2C2(C)C(C)=C(C)C1(C)S2=O` (stereo not given), the TGI with SNB-19 CNS stood at 66.1 µM; with HCC-2998 colon it was 38.3 µM; with KM12 colon, 45.4 µM; in the assay on NCI-H23 lung, 25.8 µM; with NCI-H522 lung it was 6.49 µM; in the assay with SN12C renal it was 31.1 µM. In addition, the TGI was 21.1 µM in the assay on DU-145 prostate; 19.4 µM with MDA-MB-435; > 55.7 µM with MDA-MB-231 breast; 38.1 µM in the assay with SNB-75 CNS; 20.5 µM with HCT-15 colon.

Regarding `CCOC(=O)CCC(NC(=O)c1ccc(OCc2nc3cc(C(F)(F)F)ccc3nc2-c2ccccc2)cc1)C(=O)OCC` (stereo not given), the TGI with SNB-19 CNS, with KM12 colon, in the assay on NCI-H23 lung, with NCI-H522 lung, in the assay with SN12C renal and with SR leukemia was > 100 µM in each case. In addition, the TGI with DU-145 prostate was > 100 µM; in the assay on MDA-MB-435, > 100 µM; in the assay on MDA-MB-231 breast it was > 100 µM; in the assay on SNB-75 CNS, 52.1 µM; with HCT-15 colon, > 100 µM.

`CC(C)(C)C(=O)C(CC(=O)c1ccccc1)C(=O)C(C)(C)C`: the TGI with SNB-19 CNS, in the assay on HCC-2998 colon, in the assay with KM12 colon, in the assay with NCI-H23 lung, in the assay with NCI-H522 lung and in the assay on SN12C renal was > 100 µM each time. The TGI with DU-145 prostate, in the assay on MDA-MB-435, with MDA-MB-231 breast, in the assay on SNB-75 CNS and in the assay on HCT-15 colon was > 100 µM throughout.

Regarding `Cc1ccc2c(c1C)CC1(Cc3c(ccc4c3CCC4)C1=O)C2=O` (stereo not given), the TGI in the assay on SNB-19 CNS, in the assay on HCC-2998 colon, in the assay on KM12 colon, in the assay on NCI-H23 lung, with NCI-H522 lung and with SN12C renal was > 100 µM throughout. Also, the TGI with DU-145 prostate, with MDA-MB-435, in the assay with MDA-MB-231 breast, in the assay on SNB-75 CNS and in the assay on HCT-15 colon was > 100 µM each time.

As for `N#CC1=C(N)OC2=C(CSc3ccccc32)C1c1ccc(Br)cc1` (stereo not given), the TGI with SNB-19 CNS was 51.9 µM; in the assay on KM12 colon, 44.6 µM; in the assay with NCI-H23 lung, 26.4 µM; in the assay with SN12C renal, 20.4 µM; with SR leukemia, 10.3 µM; in the assay with DU-145 prostate, > 100 µM. In addition, the TGI in the assay on MDA-MB-435 was 7.82 µM; in the assay with MDA-MB-231 breast, 29.3 µM; with SNB-75 CNS it was 21.7 µM; in the assay with HCT-15 colon, 24.5 µM.

As for `c1cc(-c2cnc(-c3ccc4c(c3)CCCO4)o2)ccn1`, the TGI with SNB-19 CNS was 40.9 µM; with NCI-H23 lung it was 30.2 µM; in the assay with NCI-H522 lung, 23.4 µM; in the assay with SN12C renal, 46.4 µM; in the assay on SR leukemia, 13.4 µM; with DU-145 prostate it was 24.8 µM. For the same molecule, the TGI in the assay on MDA-MB-435 amounted to 28.3 µM; in the assay with MDA-MB-231 breast, 41 µM; in the assay with SNB-75 CNS it was 25.2 µM; in the assay on HCT-15 colon, 31.6 µM.

Consider `CCOC(=O)c1cc2c([N+](=O)[O-])c(NC(C)=O)ccc2s1`, for which the TGI in the assay on SNB-19 CNS, in the assay with HCC-2998 colon, in the assay with KM12 colon, in the assay on NCI-H23 lung, with NCI-H522 lung and with SN12C renal was > 100 µM each time. Moreover, the TGI in the assay on DU-145 prostate was > 100 µM; in the assay on MDA-MB-435, > 100 µM; in the assay on MDA-MB-231 breast, 83.9 µM; with SNB-75 CNS it was 94.1 µM; in the assay on HCT-15 colon it was > 100 µM.

For the molecule `c1ccc(C[P+]2(c3ccccc3)c3ccccc3-c3ccccc32)cc1`, the TGI in the assay on SNB-19 CNS, with HCC-2998 colon, in the assay on KM12 colon, in the assay with NCI-H23 lung, with NCI-H522 lung and with SN12C renal was > 100 µM throughout. The TGI in the assay with DU-145 prostate, in the assay with MDA-MB-435, in the assay with MDA-MB-231 breast, in the assay on SNB-75 CNS and in the assay with HCT-15 colon was > 100 µM in each case.

For `CCCCCCCCCC[C@@H](O)[C@H]1CC[C@H]([C@H]2CC[C@H]([C@H](O)CCCCCCCCCC[C@@H]3CC(CC(C)=O)C(=O)O3)O2)O1` (stereo not given in full), the GI50 with SNB-19 CNS is 1.08 µM; in the assay with KM12 colon, 3.34 µM; with MDA-MB-435, 1.86 µM; in the assay on SNB-75 CNS it was 3.88 µM; with HCT-15 colon, 7.21 µM. Also, the TGI in the assay with SNB-19 CNS, with HCC-2998 colon, with KM12 colon, in the assay on NCI-H23 lung, in the assay on NCI-H522 lung and in the assay with SN12C renal was > 50 µM in each case. Further, the TGI in the assay with DU-145 prostate, in the assay with MDA-MB-435, with MDA-MB-231 breast, in the assay on SNB-75 CNS and with HCT-15 colon was > 50 µM each time.

As to `CC[C@@H]1CC[C@@H]2[C@H](CC[C@]3(C)[C@@H](O)CC[C@@H]23)[C@H]1C(=O)O`, the TGI in the assay on SNB-19 CNS, with HCC-2998 colon, in the assay with KM12 colon, in the assay on NCI-H23 lung, with NCI-H522 lung and in the assay with SN12C renal was > 100 µM each time. The TGI in the assay with DU-145 prostate, in the assay with MDA-MB-435, in the assay on MDA-MB-231 breast, in the assay on SNB-75 CNS and in the assay with HCT-15 colon was > 100 µM in each case.
